Experiments:
[1] = Flavin photostability in PBS under white LED irradiation; assay type: physicochemical; settings: 30 min, 100 µM, pH 7.4
Excerpt: After successful synthesis and initial characterisation, we monitored the photostability of the compounds in PBS (1x, pH 7.4) which was used for PDI assays as distilled or ultrapure water destabilises bacterial cells and coronaviruses through osmotic pressures[37],[38], thereby augmenting inactivation results. […] This yields lumichrome as the major degradation product which can only act as a PS under UV-irradiation[40]. […] However, it appears that guanidino substitution in our case improves the photostability.
Figure S4: (A) Flavin photostability (100 µM) in PBS (0.1% DMSO) irradiated with 1x105 lx (35 mW/cm2) where A
= Abs at 450 nm and A0 = Abs at 450 nm at 0 min.
photostability. Experiments were performed using a quartz cuvette and measured using an Agilent Cary 300
(1 picture or pasted object on this page, not shown here)

[2] = test system: E. coli BL21(DE3); experiment: Photodynamic inactivation of E. coli (CFU counting); assay type: cell-based
Description: After an overnight aerobic culture in LB broth at 37 °C with shaking at 225 rpm, the resulting E. coli were centrifuged at 2,500 rpm for 10 min. The pellet was resuspended in PBS (Sigma, 1x, pH 7.4) to an OD600 value of 0.6 (~ 1 × 10^8 bacteria per ml). […] Aliquots of negative controls (0.5% DMSO in PBS; PBS only) and 100 μM flavin-bacteria samples were covered in foil to remain in dark, while all samples were plated onto a 96-well plate and exposed to white LED irradiation (1 × 10^5 lx) for 15 min. After 15 min of irradiation or darkness, each sample was serially diluted to its respective, appropriate dilution and plated onto an LB agar plate with 50 μg/mL kanamycin. Plates were incubated overnight at 37 °C in the dark. Survival of bacteria was determined by counting colony forming units (CFUs) the next day.
For time point data, aliquots of 100 μM flavin-bacteria solutions were taken at 5-min increments of irradiation (0, 5, 10, and 15 min) and evaluated similarly as above. Time point experiment with one-minute increments, between 0 and 5 min, were conducted for 100 μM F4-bacteria samples.

[3] = test system: pDNA (pUC18); experiment: pDNA photocleavage, agarose gel electrophoresis; assay type: biochemical; settings: 10 µM flavin, 15 min white LED, PBS 0.1% DMSO
Description: (§1) A 20 µL aliquot was taken after 15 min of white LED irradiation (1 × 10^5 lx). Prior to loading, 2 µL of 6X Orange-G loading dye in glycerol were added to the aliquot and mixed vigorously. The gel was electrophoresed at 80 V for 35 min with 1% agarose gels in 1X Tris–acetate-EDTA (TAE) buffer. Gels were then imaged in a Syngene G:BOX Gel Documentation System and band % quantification was performed using ImageJ Gel Analyzer.

[4] = test system: murine hepatitis virus A59 strain (MHV-A59); experiment: Photodynamic inactivation of MHV-A59 (TCID50 assay in 17Cl-1 cells); assay type: cell-based
Description: The efficacy of the flavins were enumerated utilizing modified methods from ISO 18,184 and Leibowitz et al.[56] […] 100 µM working stock solutions were then created by diluting each DMSO solution into PBS. To control for the effect of DMSO on MHV-A59, DMSO was diluted into PBS at the same concentration. A white light apparatus was set up to cover a 4 × 5 (row x column) area of a 96-well plate with the same level of light intensity (1 × 10^5 lx). The stock solutions were then diluted in replicates of four to a total of 180 µl in PBS at 1, 5, and 10 µM concentrations for each sample. Virus stocks of MHV-A59 were thawed on ice prior to use. 20 µl of MHV-A59 stock (1.4 × 10^9 PFU/ml) was then mixed into each well, and the 4 × 5 well matrix was treated with the light or incubated in the dark at room temperature for a specified time (5, 10, or 15 min).
After treatment, the samples were mixed into 320 µl of Gibco Difco™ Beef Extract (1.5% w/v beef extract in ddH2O; Life Technologies) and rolled for 15 min to chelate any free ions in the solution. The samples then were serially diluted (10^0–10^–7) in infectivity media (Dulbecco’s modified Eagle’s medium low glucose 1 g/L (DMEM, Life Technologies) supplemented with 2.5% fetal bovine serum (Merck), 3% tryptose phosphate broth (Merck), 1 × non-essential amino acids (Gibco), 1 × antibiotic–antimycotic (Thermo Fisher Scientific) and 1 × L-Glutamine (Gibco]) and added in triplicate to 17Cl-1 cell plates. For each sample or control there were 4 replicate treatments (in light or dark); each treatment replicate was plated in triplicate. Infected 17Cl-1 plates were incubated at 37 °C in a 5% CO2 atmosphere for 24 h. Plates were scored for cytopathic effect (CPE) by microscopy and viral titres were determined by the Reed and Muench 50% tissue culture infectious dose (TCID50) end point method. Outliers were removed from the four replicates using an outlier test. The full protocol was repeated in triplicate on different days to account for any variability in the assay.

[5] = test system: ssRNA (EGFP-encoding mRNA, ~ 1 k nt); experiment: ssRNA photocleavage, agarose gel electrophoresis; assay type: biochemical; settings: 10 µM flavin, 15 min white LED, PBS 0.1% DMSO
Description: as §1

[6] = test system: WI-38 cells; experiment: 24 h MTS cytotoxicity assay, WI-38; assay type: cell-based; settings: Homo sapiens, 24 h incubation, dark
Description: (§2) The MTS tetrazolium compound is reduced by cells into a coloured formazan product which is soluble in cell culture media. It can be detected colorimetrically between 450 and 540 nm with the measured absorbance directly proportional to the amount of metabolically active cells in culture. Cells were seeded into clear 96-well plates containing 10,000 cells/well in 100 µL complete growth medium and cultured for 24 h at 37 °C and 5% CO2. […] After further 24 h incubation at 37 °C and 5% CO2, 20 µL of CelTiter 96® AQueous One Solution (Promega) was added into each well and incubated at 37 °C, 5% CO2 for 1–4 h, according to the manufacturer’s instruction. The absorbance of each well was measured at 490 nm using a plate reader (Spark, Tecan). Control measurements included negative control of cells with DMEM, cells with DMEM containing 0.1% DMSO, cell-free culture media (blank) and cell-free sample dilutions in culture media to evaluate potential sample interferences with MTS assay. All experiments were conducted in biological triplicates. The percentage cell viability was calculated according to Eq. (1):1 Cell viability(%)=100×Absorbanceoftreatedcells-Absorbanceofblank/Absorbanceofcontrol-Absorbanceofblank

[7] = test system: 17Cl-1 cells; experiment: 24 h MTS cytotoxicity assay, 17Cl-1; assay type: cell-based, murine; settings: Mus musculus, 24 h incubation, dark
Description: as §2

[8] = test system: WI-38 cells; experiment: Light-induced toxicity towards WI-38 cells (MTS); assay type: cell-based, human; settings: 10 μM flavin, 15 min irradiation 1 × 10^5 lx
Description: An adapted method reported by Maisch et al. was used to conduct phototoxicity studies on human lung fibroblasts, WI-38[28]. Cells were seeded into 96-well plates containing 10,000 cells/well in 100 µL complete growth medium and cultured for 24 h at 37 °C and 5% CO2. […] The resulting mixtures were then incubated in the dark for 5 min and then either illuminated with 1 × 10^5 lx for 5, 10 or 15 min, or incubated further in the dark for 15 min (dark control). After irradiation, the flavin solutions were removed and 100 μL of DMEM with 10% FBS and without phenol red was added to each well and incubated over night at 37 °C and 5% CO2. Subsequently, 20 µL of MTS reagent was added into each well and incubated at 37 °C and 5% CO2 for 1–4 h and the absorbance of each well was measured at 490 nm using a plate reader. Control measurements included negative control untreated cells with light and in the dark containing 0.1% DMSO and cells treated with flavins for 15 min in the dark. All experiments were conducted in biological triplicates. The percentage cell viability was calculated according to Eq. (1).

[9] = 5 µM flavin, 10 min irradiation

Cc1cc2nc3c(=O)[nH]c(=O)nc-3n(C[C@H](O)[C@H](O)[C@H](O)CO)c2cc1C [Riboflavin, reference compound]
photodecomposition / degradation [1]: 80% | E. coli log10 reduction of CFUs ([2]; 1 µM flavin, 15 min irradiation (31.5 J/cm^2)): 0.2 log10 | E. coli log10 reduction of CFUs ([2]; 1 µM flavin, 15 min irradiation (31.5 J/cm^2), listed as riboflavin): no inactivation | E. coli log10 reduction of CFUs ([2]; 10 µM flavin, 15 min irradiation): 0.2 log10 | E. coli log10 reduction of CFUs ([2]; 100 µM flavin, 5 min irradiation (10.5 J/cm^2)): 0.0 log10 | E. coli log10 reduction of CFUs ([2]; 100 µM flavin, 10 min irradiation): 0.0 log10 | E. coli log10 reduction of CFUs ([2]; 100 µM flavin, 15 min irradiation): 0.0 log10 | E. coli log10 reduction of CFUs ([2]; 100 µM flavin, 15 min irradiation, listed as riboflavin): no activity | % NC (nicked coiled pDNA after photocleavage) [3]: 11% | MHV-A59 log10 reduction in viral titre ([4]; 1 µM flavin, 10 min irradiation (21.0 J/cm^2)): 1.2 log10 | MHV-A59 log10 reduction in viral titre [4, 9]: 3.2 log10 | MHV-A59 viral load reduction [4, 9]: > 99.9% | MHV-A59 log10 reduction in viral titre ([4]; 10 µM flavin, 5 min irradiation (10.5 J/cm^2)): 2.7 log10 | MHV-A59 log10 reduction in viral titre ([4]; 10 µM flavin, 10 min irradiation): 3.4 log10 | MHV-A59 log10 reduction in viral titre ([4]; 10 µM flavin, 15 min irradiation (31.5 J/cm^2)): 3.7 log10 | % cleaved ssRNA [5]: 28% | IC50 [6]: > 100 µM | IC50 [7]: > 100 µM | reduction in cell viability (light-induced toxicity) [8]: no decrease in cell viability

From paper PMC9022420 (Scientific Reports, 2022)
